PMC2643345 (Molecular cancer therapeutics, 2008)

Molecular target: T1, wild-type AR (Homo sapiens, UniProt P10275)
T1 sequence (P10275 1-920): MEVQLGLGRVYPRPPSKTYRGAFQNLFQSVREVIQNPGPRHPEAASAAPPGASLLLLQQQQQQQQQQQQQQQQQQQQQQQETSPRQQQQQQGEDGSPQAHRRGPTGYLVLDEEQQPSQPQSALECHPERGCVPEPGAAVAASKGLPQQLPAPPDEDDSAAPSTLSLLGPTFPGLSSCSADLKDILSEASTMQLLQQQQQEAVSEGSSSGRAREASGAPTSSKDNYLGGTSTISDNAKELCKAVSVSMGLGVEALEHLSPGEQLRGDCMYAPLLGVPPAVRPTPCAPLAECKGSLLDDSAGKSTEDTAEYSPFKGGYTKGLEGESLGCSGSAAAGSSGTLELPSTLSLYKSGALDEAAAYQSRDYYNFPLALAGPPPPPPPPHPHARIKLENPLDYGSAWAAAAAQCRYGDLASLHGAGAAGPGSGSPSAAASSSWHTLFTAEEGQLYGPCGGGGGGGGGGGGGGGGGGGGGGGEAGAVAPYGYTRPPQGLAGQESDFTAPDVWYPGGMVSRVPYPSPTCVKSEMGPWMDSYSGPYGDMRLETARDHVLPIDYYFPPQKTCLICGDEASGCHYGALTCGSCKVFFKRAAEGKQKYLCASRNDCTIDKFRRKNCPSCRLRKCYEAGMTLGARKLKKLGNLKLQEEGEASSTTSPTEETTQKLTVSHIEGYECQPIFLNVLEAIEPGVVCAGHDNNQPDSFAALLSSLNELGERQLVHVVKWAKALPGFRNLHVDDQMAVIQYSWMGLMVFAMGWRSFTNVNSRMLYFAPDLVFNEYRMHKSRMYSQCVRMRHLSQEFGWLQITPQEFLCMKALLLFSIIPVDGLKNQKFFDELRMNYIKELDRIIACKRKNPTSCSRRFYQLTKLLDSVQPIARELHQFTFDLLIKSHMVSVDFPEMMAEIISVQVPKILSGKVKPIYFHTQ
Test: Competitive inhibition of [3H]R1881 binding, wild-type AR

binding to the AR (competitive binding, up to 10 μM): did not bind
inhibition at 10 µM (read-out: wild-type (LAPC4/PC3-AR), inhibition of [3H]R1881 binding as symbol): < 20%
SMILES: C[C@]12CC[C@H](O)CC1=CC[C@@H]1[C@@H]2CC[C@]2(C)C(c3cccnc3)=CC[C@@H]12 [Abiraterone]
